# Data taken from ChEMBL document CHEMBL1125430, “Analogues of the dioxolanes dexoxadrol and etoxadrol as potential phencyclidine-like agents. Synthesis and structure-activity relationships” (J Med Chem, 1992).
# Organism: Rattus norvegicus
# Test: Displacement of [3H]TCP from PCP receptor in tissue preparation of whole rat brain minus cerebellum.
# Assay type: functional, organism-based
row,SMILES,Ki [nM]
1,CCC1(CC)OC[C@H]([C@@H]2CCCCN2)O1,87000
2,CC[C@]1(c2cccc(O)c2)OC[C@H]([C@@H]2CCCCN2)O1,489
3,c1ccc(CN2CCCC[C@H]2[C@H]2COC(c3ccccc3)(c3ccccc3)O2)cc1,10100
4,CN1CCCC[C@H]1[C@H]1COC(c2ccccc2)(c2ccccc2)O1,4400
5,CC[C@]1(c2ccccc2Cl)OC[C@H]([C@@H]2CCCCN2)O1,14.3
6,CC[C@]1(c2ccccc2F)OC[C@H]([C@@H]2CCCCN2)O1,36
7,CNC[C@H]1COC(c2ccccc2)(c2ccccc2)O1,7300
8,NC[C@H]1COC(c2ccccc2)(c2ccccc2)O1,1400
9,CC[C@]1(c2cccc([N+](=O)[O-])c2)OC[C@H]([C@@H]2CCCCN2)O1,1320
10,CCCCCCCCC[C@]1(c2ccccc2)OC[C@H]([C@@H]2CCCCN2)O1,43000
11,CCCC[C@]1(c2ccccc2)OC[C@H]([C@@H]2CCCCN2)O1,200
12,CC[C@]1(c2ccc(O)cc2)OC[C@H]([C@@H]2CCCCN2)O1,19900
13,C=CCN1CCCC[C@H]1[C@H]1COC(c2ccccc2)(c2ccccc2)O1,15200
14,CCC[C@H](NC)[C@H]1COC(c2ccccc2)(c2ccccc2)O1,7000
15,c1ccc(C2(c3ccccc3)OCC(C3CCCCN3)CO2)cc1 (stereo not drawn),> 100000
16,CC[C@]1(c2cccc(Cl)c2)OC[C@H]([C@@H]2CCCCN2)O1,59
17,C1=Cc2ccccc2C2(OC[C@H]([C@@H]3CCCCN3)O2)c2ccccc21,325
18,CCNC[C@H]1COC(c2ccccc2)(c2ccccc2)O1,8400
19,C[C@H](N)[C@H]1COC(c2ccccc2)(c2ccccc2)O1,607
20,CC(C)[C@]1(c2ccccc2)OC[C@H]([C@@H]2CCCCN2)O1,45
21,CC[C@]1(c2cccc(N=C=S)c2)OC[C@H]([C@@H]2CCCCN2)O1,590
22,CN[C@@H](C)[C@H]1COC(c2ccccc2)(c2ccccc2)O1,703

row,SMILES,Ki [nM]
1,CC[C@]1(c2ccsc2)OC[C@H]([C@@H]2CCCCN2)O1,124
2,c1ccc(C2(c3ccccc3)OC[C@H]([C@@H]3CCCN3)O2)cc1,> 10000
3,CCN[C@@H](C)[C@H]1COC(c2ccccc2)(c2ccccc2)O1,9000
4,CCCCCCN1CCCC[C@H]1[C@H]1COC(c2ccccc2)(c2ccccc2)O1,21200
5,CC[C@]1(c2ccccc2O)OC[C@H]([C@@H]2CCCCN2)O1,293
6,CC[C@]1(c2ccc(Cl)cc2)OC[C@H]([C@@H]2CCCCN2)O1,2800
7,CC[C@]1(c2cccc(N)c2)OC[C@H]([C@@H]2CCCCN2)O1,1230
8,CCC[C@]1(c2ccccc2)OC[C@H]([C@@H]2CCCCN2)O1,69
9,CC[C@]1(c2cccs2)OC[C@H]([C@@H]2CCCCN2)O1,205
10,CCN1CCCC[C@H]1[C@H]1COC(c2ccccc2)(c2ccccc2)O1,6900
11,c1ccc(C2(c3ccccc3)OC[C@@H]([C@@H]3CCCN3)O2)cc1,3300
12,CC[C@]1(c2ccc(F)cc2)OC[C@H]([C@@H]2CCCCN2)O1,649
13,C[C@]1(c2ccccc2)OC[C@H]([C@@H]2CCCCN2)O1,847
14,CCC[C@H](N)[C@H]1COC(c2ccccc2)(c2ccccc2)O1,3450
15,CCCN1CCCC[C@H]1[C@H]1COC(c2ccccc2)(c2ccccc2)O1,6800
16,c1ccc([C@H]2OC[C@H]([C@@H]3CCCCN3)O2)cc1,25000
17,c1ccc2c(c1)-c1ccccc1C21OC[C@H]([C@@H]2CCCCN2)O1,15500
18,"c1ccc(C2(c3ccccc3)CCC(C3CCCCN3)C2)cc1 (single isomer, unassigned; 40a)",52000
19,"c1ccc(C2(c3ccccc3)CCC(C3CCCCN3)C2)cc1 (single isomer, unassigned; 40b)",8300
20,CC[C@]1(c2ccccc2)OC[C@H]([C@@H]2CCCCN2)O1 [ETOXADROL],107
21,c1ccc(C2(N3CCCCC3)CCCCC2)cc1 [PHENCYCLIDINE],80
